The results in this text go back to article PMC6486640, “The ATPase mechanism of UvrA2 reveals the distinct roles of proximal and distal ATPase sites in nucleotide excision repair” (Nucleic Acids Research, 2019).

Data set [1] has as its target T1, UvrA2 (Geobacillus stearothermophilus, UniProt A0ACH1EC70).
T1 construct: gene uvrA; pET28a-NHis-UvrA, N-terminal His tag, expressed in E. coli Rosetta (DE3) pLysS; heat-treated to remove ADP; homodimer with proximal and distal ATPase sites per monomer
Put plainly: global fit of pre-steady state Pi release (MDCC-PBP stopped-flow), KinTek Explorer. The class given is biochemical. As to conditions: no DNA; pH 7.4, 5 mM MgCl2, 40°C; distal (high-affinity) sites; best-fit model value; proximal sites are a weaker second site. The text has this: global fit of pre-steady state Pi release (MDCC-PBP stopped-flow), KinTek Explorer on UvrA2

Data set [2] deals with T2, T. maritima UvrA Δ117-399 (Thermotoga maritima, UniProt Q9WYV0, DEL117-399).
T2 construct: internal deletion of 117-399; preparation in Supplementary Data
Put plainly: X-ray crystal structure, […] Å. The data set is classed as binding. Conditions: ADP in proximal and distal sites.

The target of data set [3] is UvrA2 (UvrA dimer, wild type) (Geobacillus stearothermophilus, UniProt A0ACH1EC70 1-952). Put plainly: fluorescence anisotropy; 0-250 nM UvrA2, 7.5 nM DNA; Equilibrium fluorescence anisotropy, 7.5 nM DNA, 0-250 nM UvrA2; anisotropy buffer and temperature not in the material (other assays of the paper: 20 mM Tris-HCl pH 7.4, 0.15 M NaCl, 5% glycerol, 5 mM MgCl2, 5 mM DTT, 40 C). Conditions: protein: recombinant, tags: N-terminal His (pET28a-NHis-UvrA), chain copies: 2, blunt. Background: In fluorescence polarisation assays a small probe gives low polarisation when free and higher when bound to something large.

T2 sequence (Q9WYV0 other isoform, or with tags, fused parts or gaps DEL117-399): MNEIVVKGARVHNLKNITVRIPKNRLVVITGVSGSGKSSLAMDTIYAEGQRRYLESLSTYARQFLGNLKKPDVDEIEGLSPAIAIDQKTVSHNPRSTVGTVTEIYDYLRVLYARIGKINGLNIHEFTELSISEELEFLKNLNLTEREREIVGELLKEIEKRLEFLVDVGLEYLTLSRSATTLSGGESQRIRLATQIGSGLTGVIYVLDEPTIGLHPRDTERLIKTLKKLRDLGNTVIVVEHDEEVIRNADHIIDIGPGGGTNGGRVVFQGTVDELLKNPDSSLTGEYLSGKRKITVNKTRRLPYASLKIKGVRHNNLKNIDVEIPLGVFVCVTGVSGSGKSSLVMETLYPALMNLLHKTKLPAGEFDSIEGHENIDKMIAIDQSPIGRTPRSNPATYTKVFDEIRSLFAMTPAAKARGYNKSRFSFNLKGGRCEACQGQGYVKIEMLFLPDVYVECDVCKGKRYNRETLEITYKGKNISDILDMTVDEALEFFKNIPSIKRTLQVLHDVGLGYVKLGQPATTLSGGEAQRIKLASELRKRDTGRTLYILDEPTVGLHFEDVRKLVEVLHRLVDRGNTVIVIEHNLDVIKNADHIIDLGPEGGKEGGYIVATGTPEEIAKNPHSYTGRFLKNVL

`Nc1ncnc2c1ncn2[C@@H]1O[C@H](COP(=O)(O)OP(=O)(O)OP(=O)(O)O)[C@@H](O)[C@H]1O` [ATP] came in with a Best-fit values in data set [1] of 1 µM.

As to `Nc1ncnc2c1ncn2[C@@H]1O[C@H](COP(=O)(O)OP(=O)(O)O)[C@@H](O)[C@H]1O` [ADP], in data set [2], the “X-ray crystal structure, 2.0 Å” value is “the fully ADP-bound structure reported here further supports this hypothesis”.

B1: fluorescein lesion DNA, 50 bp duplex (dsDNA)
DNA 1: CCTGTCAGCTCGTTCTGAGTTCCAGTAGTAATGTGGCCGTAAGTAATCCA
DNA 2: TGGATTACTTACGGCCACATTACTACTGGAACTCAGAACGAGCTGACAGG
modifications: internal fluorescein-dT (iFluorT) at position 26 of strand 1, acts as lesion
On to B1, for which the Kd – broadly, the constant that tells how readily two partners part at equilibrium – in data set [3] (label: internal fluorescein (strand 1, T26)) is 12 ± 2 nM.

B2: native (undamaged) DNA, 50 bp duplex (dsDNA)
DNA 1: TGGATTACTTACGGCCACATTACTACTGGAACTCAGAACGAGCTGACAGG
DNA 2: CCTGTCAGCTCGTTCTGAGTTCCAGTAGTAATGTGGCCGTAAGTAATCCA
For the molecule B2, the Kd in data set [3] (label: 5' 6-FAM on strand 1 (template)) is 45 ± 7 nM.
